These results are taken from ChEMBL document CHEMBL6103595, “Synthesis and evaluation of piceatannol derivatives as novel arginase inhibitors with radical scavenging activity and their potential for collagen reduction in dermal fibroblasts” (Eur J Med Chem, 2025).

Structures are written as SMILES. The source made the active and inactive calls. The calls are words filed in the database; no cut-off is given here. Some results are limits rather than exact numbers.

The target in data set [1] is T1, Arginase-1 (Bos taurus, UniProt Q2KJ64).
T1 sequence (Q2KJ64 whole entry): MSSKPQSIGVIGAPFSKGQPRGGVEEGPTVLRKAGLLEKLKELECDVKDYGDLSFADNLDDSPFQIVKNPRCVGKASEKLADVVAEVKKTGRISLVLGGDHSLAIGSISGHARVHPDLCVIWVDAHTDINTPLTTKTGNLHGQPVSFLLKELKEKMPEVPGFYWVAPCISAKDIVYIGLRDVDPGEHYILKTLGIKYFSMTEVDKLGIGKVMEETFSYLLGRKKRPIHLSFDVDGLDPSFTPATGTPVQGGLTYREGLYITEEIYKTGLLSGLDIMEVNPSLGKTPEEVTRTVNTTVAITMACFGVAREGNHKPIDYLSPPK
The experiment in a line: Inhibition of bovine Arg-1 using L-ARG as substrate incubated for 60 mins by OPA colorimetric analysis.

Data set [2] in a line: Antioxidant activity assessed as DPPH radical scavenging activity incubated for 30 mins under dark condition by absorbance based analysis. It counts as functional. For orientation: Loss of DPPH colour is used to gauge radical scavenging.
A short description of data set [3]: Antioxidant activity assessed as ABTS radical scavenging activity incubated for 12 hrs under dark condition by absorbance based plate reader analysis. Format: functional.
Data set [4] concerns the target T2, Arginase-1 (Homo sapiens, UniProt P05089).
T2 sequence (P05089 whole entry): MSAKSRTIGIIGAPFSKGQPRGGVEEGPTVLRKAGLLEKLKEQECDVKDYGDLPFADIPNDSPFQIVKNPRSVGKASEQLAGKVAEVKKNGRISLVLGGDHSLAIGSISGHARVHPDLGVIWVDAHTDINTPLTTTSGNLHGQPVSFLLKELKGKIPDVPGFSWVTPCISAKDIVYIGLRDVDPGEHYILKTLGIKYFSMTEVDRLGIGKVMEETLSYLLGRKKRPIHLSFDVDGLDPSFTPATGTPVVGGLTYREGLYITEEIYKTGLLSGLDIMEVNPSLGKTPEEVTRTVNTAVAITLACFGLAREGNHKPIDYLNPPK
The experiment in a line: Inhibition of recombinant human Arg-1 using L-ARG as substrate incubated for 60 mins by OPA colorimetric analysis.

Data set [5] can be described thus: Stability of the compound in aqueous solution at 20 mM measured at <= 2 hrs relative to control. Format: physicochemical. The following applies: read-out: Stability.
The nature of data set [6]: Cytotoxicity against human Red-COLA1 cells assessed as cell viability at 10 uM incubated for 24 hrs by MTT assay relative to control. Format: functional. The following applies: read-out: Activity.
The test system of data set [7] is Red-COLA1. The experiment in a line: Antifibrotic activity against TGF-beta induced human Red-COLA1 cells assessed as reduction in procollagen type-1 synthesis at 10 uM incubated for 48 hrs by ELISA (reference value: 130.6 ng/ml). Format: functional, cell-based. In general terms: In an ELISA, binding on a coated surface is turned into a signal by an enzyme label.

The nature of data set [8]: Antifibrotic activity against TGF-beta induced human Red-COLA1 cells assessed as reduction in collagen deposition rate at 10 uM measured after 7 days by sirius red staining based microplate reader analysis (reference value: 130.6%). The following applies: time 7 day. Details: scale not given: the % may be the effect or the level left. It counts as functional.
For a further data set, the target named is T3, Arginase-1 (Bos taurus) (UniProt Q2KJ64).
T3 sequence (whole entry): T1 sequence (Q2KJ64 whole entry)
The experiment in a line: Potency index, ratio of piceatannol IC50 to test compound IC50 for inhibition of bovine Arg-1 using L-ARG as substrate.

The nature of data set [9]: Cytotoxicity against human Red-COLA1 cells assessed as cell viability at 5 uM incubated for 24 hrs by MTT assay relative to control. Format: functional. The following applies: read-out: Activity.
Data set [10] is described as follows: (§1) Antifibrotic activity against TGF-beta induced human Red-COLA1 cells assessed as reduction in procollagen type-1 synthesis at 5 uM incubated for 48 hrs by ELISA (reference value: 130.6 ng/ml). It counts as functional.
Data set [11] is described as follows: Antifibrotic activity against TGF-beta induced human Red-COLA1 cells assessed as reduction in collagen deposition rate at 5 uM measured after 7 days by sirius red staining based microplate reader analysis (reference value: 130.6%). As to conditions: time 7 day. It counts as functional. Further details: scale not given: the % may be the effect or the level left.

Data set [12] can be described thus: Stability of the compound in aqueous solution at 20 mM measured after 4 hrs. Format: physicochemical. As to conditions: buffer, 20000 µM.
Data set [13] concerns Red-COLA1. The data set is described as §1. It counts as functional.

A word on the IC50: it is the concentration needed to halve the response being measured. As for `Oc1ccc(/C=C/c2ccccc2)cc1O` [(E)-3,4-STILBENDIOL], on Arginase-1 [1], 97 µM corresponded to half-maximal inhibition (IC50).

As a reminder, the EC50 is the concentration at which the effect is half-maximal. As for `O/N=C(/Nc1ccc(O)c(O)c1)c1ccc(O)c(O)c1`, the IC50 against Arginase-1 [1] was 115 µM. The values for the EC50 in [2] and in data set [3] were 16 µM and 12 µM, respectively.

As for `O=C(c1ccc(O)c(O)c1)N(CCCO)c1ccc(O)c(O)c1`, inhibition against Arginase-1 [1] was half-maximal at 148 µM (IC50).

At Arginase-1 [1], `O=C(Nc1cc(O)cc(O)c1)c1ccc(O)c(O)c1` came in with an IC50 of 202 µM.

In the case of `Oc1cccc(NC(=S)c2ccc(O)c(O)c2)c1`, the IC50 against Arginase-1 [1] was 41 µM.

For `Oc1cc(O)cc(NC(=S)c2ccc(O)c(O)c2)c1`, the IC50 at Arginase-1 [1] turned out to be 66 µM.

The compound `O=C(c1ccc(O)c(O)c1)N(CCCCO)c1ccc(O)c(O)c1` displayed an IC50 on Arginase-1 [1] of 88 µM.

For the compound `O=C(c1ccc(O)c(O)c1)N(CCO)c1ccc(O)c(O)c1`, the IC50 against Arginase-1 [1] was 228 µM.

Regarding `Nc1ccc(NC(=O)c2ccc(O)c(O)c2)cc1`, on Arginase-1 [1], 170 µM corresponded to half-maximal inhibition (IC50).

Consider `Cc1c(C)c2c(c(C)c1O)CCC(C)(C(=O)O)O2` (stereo not given) [TROLOX], for which the EC50 in [2] was found to be 29 µM; in data set [3] it was 24 µM.

Turning to `Oc1ccc(/N=C(/Nc2ccc(O)c(O)c2)c2ccc(O)c(O)c2)cc1O`, the IC50 at Arginase-1 [1] is 171 µM.

The compound `O=C(Nc1ccc(O)cc1)c1ccc(O)c(O)c1` had an IC50 against Arginase-1 [1] of 2600 µM.

At Arginase-1 [1], `Oc1ccc(O)c(/C=C/c2ccc(O)c(O)c2)c1` displayed an IC50 of 59 µM.

Consider `Oc1cc(O)cc(/C=C/c2ccc(O)c(O)c2)c1` [PICEATANNOL], for which the IC50 was determined as 20 µM against Arginase-1 [1] and 28 µM on Arginase-1 [4]. Moreover, the remaining at 2 h, 20000 µM in [5] amounted to 70%. In addition, the EC50 in data set [2] is 37 µM; in [3], 13 µM. In addition, in data set [6], the viability at 10 µM amounted to 100%. In addition, the outcome in the data set on Red-COLA1 [7] was inactive. For the same compound, the Activity in data set [8] stood at 113.5%.

In turn, `O=C(Nc1cccc(O)c1)c1ccc(O)c(O)c1` returned an IC50 at Arginase-1 [1] of 770 µM.

Turning to `Oc1ccc(C(=S)Nc2ccc(O)c(O)c2)cc1`, the 50% inhibitory concentration (IC50) on Arginase-1 [1] is 13 µM; on Arginase-1 [4], 38 µM. In addition, the EC50 in [2] came to 14 µM; in [3], 10 µM.

On Arginase-1 [1], `O=C(Nc1ccc(O)c(O)c1)c1cccc(O)c1O` registered an IC50 of 69 µM.

Take `Nc1cccc(C(=S)Nc2ccc(O)c(O)c2)c1`: the IC50 against Arginase-1 [1] was found to be 161 µM.

Consider `Oc1ccc(/C=C/c2ccc(O)c(O)c2)cc1O`, for which half-maximal inhibition on Arginase-1 [1] (IC50) was put at 69 µM.

`N[C@@H](CSCCB(O)O)C(=O)O`: the IC50 against Arginase-1 [1] is 17 µM; at Arginase-1 [4], 9 µM. For the same compound, the viability at 10 µM in [6] is 96.7%. The result with Red-COLA1 [7] was inactive. Besides, in data set [8], the Activity was found to be 130.6%.

`O=C(Nc1ccccc1O)c1ccc(O)c(O)c1` displayed an IC50 against Arginase-1 [1] of 3100 µM.

For `Nc1cccc(NC(=O)c2ccc(O)c(O)c2)c1`, on Arginase-1 [1], the IC50 came out at 440 µM.

On to `Nc1cccc(NC(=S)c2ccc(O)c(O)c2)c1`, for which, at Arginase-1 [1], half-maximal inhibition (IC50) required 116 µM.

`Oc1ccc(C(=S)Nc2ccccc2)cc1O`: inhibition against Arginase-1 [1] was half-maximal at 124 µM (IC50).

The compound `O=S(=O)(Nc1ccc(O)c(O)c1)c1cc(O)ccc1O` showed an IC50 against Arginase-1 [1] greater than 500 µM.

At Arginase-1 [1], `O=C(Nc1ccc(O)c(O)c1)c1ccc(O)c(O)c1` came in with an IC50 of 20 µM. The EC50 in [2] and in [3] was 12 µM throughout.

On Arginase-1 [1], `O=S(=O)(Nc1ccc(O)c(O)c1)c1ccc(O)c(O)c1` gave an IC50 of 130 µM. Besides, the Ratio IC50 at Arginase-1 (Bos taurus) was determined as 6.

Regarding `Oc1cccc(C(=S)Nc2ccc(O)c(O)c2)c1`, the IC50 against Arginase-1 [1] stood at 16 µM; on Arginase-1 [4], 28 µM. Besides, the EC50 in data set [2] was determined as 10 µM; in data set [3] it was 12 µM.

As to `Oc1ccc(NC(=S)c2ccccc2)cc1O`, at Arginase-1 [1], the IC50 is 63 µM.

In the case of `O=c1c(O)c(-c2ccc(O)c(O)c2)oc2cc(O)cc(O)c12` [QUERCETIN], the concentration for a half-maximal effect (EC50) in [2] was determined as 16 µM; in data set [3], 10 µM.

Regarding `O=C(Nc1ccc(O)c(O)c1)c1cc(O)cc(O)c1`, the IC50 against Arginase-1 [1] came to 34 µM. In addition, the EC50 in data set [2] amounted to 23 µM; in data set [3], 5 µM.

For the compound `O=S(=O)(Nc1ccc(O)c(O)c1)c1cccc(O)c1`, the IC50 on Arginase-1 [1] was 325 µM.

`O=C(Nc1ccccc1)c1ccc(O)c(O)c1`: the IC50 against Arginase-1 [1] was 1000 µM.

`O=C(Nc1ccc(O)c(O)c1)c1cc(O)c(O)c(O)c1` returned an IC50 against Arginase-1 [1] of 65 µM.

Turning to `Oc1ccc(NC(=S)c2ccc(O)c(O)c2)cc1`, the IC50 against Arginase-1 [1] was determined as 95 µM.

Consider `O=C(c1ccc(O)c(O)c1)N(CCCCCO)c1ccc(O)c(O)c1`, for which, on Arginase-1 [1], the IC50 was 137 µM.

Turning to `Oc1ccc(NC(=S)c2ccc(O)c(O)c2)cc1O`, the IC50 amounted to 9 µM against Arginase-1 [1] and 55 µM on Arginase-1 [4]. Besides, the Ratio IC50 on Arginase-1 (Bos taurus) amounted to 2. The remaining at 2 h, 20000 µM in [5] was found to be 70%. Further, the EC50 in data set [2] was 9 µM; in [3], 12 µM. Besides, the viability at 5 µM in data set [9] is 92.8%. The Activity in data set [10] came to 87.5 ng/mL; in data set [11] it was 100.8%.

At Arginase-1 [1], `CN(C(=O)c1ccc(O)c(O)c1)c1ccc(O)c(O)c1` returned an IC50 of 222 µM.

In the case of `Oc1cc(O)cc(C(=S)Nc2ccc(O)c(O)c2)c1`, the IC50 against Arginase-1 [1] was determined as 20 µM; on Arginase-1 [4], 32 µM. Besides, in data set [12], the Stability result is reported as “Stable”. The EC50 was determined as 17 µM in data set [2] and 12 µM in data set [3]. Besides, the viability at 5 µM in [9] was determined as 100%. In addition, the result in the data set on Red-COLA1 [13] was inactive. For the same compound, the Activity in data set [11] is 133.1%.
